What was measured:
[1] = system: MCF-7 breast cancer cell line; experiment: Tetrazolium dye proliferation (WST-1) assay, MCF-7; type: cell-based; set-up: proliferation inhibitory effect compared with Gemcitabine: concentration or dose not given beside the values; conditions: 5 days incubation; for proliferation inhibitory effect compared with Gemcitabine: Gemcitabine set to 0, negative = less inhibition than Gemcitabine; for inhibition at 1 µM: Homo sapiens, MCF7, 120 h, concentration not given (primary screen 1 microM), mean±SD, read-out: proliferation inhibitory effect compared with 0.1 % DMSO vehicle control group
Experimental: (§1) Determination of the ability of compound of formula (I) and combinations between compound of formula (I) and certain therapeutic compounds described herein to inhibit the proliferation of target cells was assayed in vitro against breast and prostate tumour cells. The antiproliferative activity was measured through the commercial WST-1 proliferation measurement reagent in a two-step screening procedure: […] MCF-7 and LNCaP cells were purchased from ATCC. PNT1A cells were purchased from ECACC. The cells were grown in a subconfluent condition to maintain a logarithmic growth phase. The cells were dislodged for passage using trypsin-EDTA. The proliferation of the cell lines was evaluated by using the commercial WST-1 proliferation measurement reagent. Cells from exponentially growing cultures were plated on the 96 well plates at the appropriate seeding density in the optimal medium to give logarithmic growth over the course of the assay. The plates with MCF-7 and PNT1A cells were incubated 24h at 37°C in a humidified CO2 atmosphere to allow for recovery from trypsinization before adding of test and control compounds. […] Control compounds Ara-C and Gemcitabine stock solutions were prepared in sterile water. Each test and control compound was diluted twice the final concentration in appropriate media. Half of the final well volume of each dilution was added in six parallels to plates containing cells. […] The plates were returned to 37°C in a humidified CO2 atmosphere and incubated for 5 days. […] Following incubation the absorbance at a wavelength of 450nm was measured from each well using a multilabel counter. The absorbance at wavelength 450nm correlates linearly to number of viable cells in the well. The means and standard deviations for parallel samples were calculated and plotted as a graph.

[2] = system: PNT1A immortalized normal prostate cell line; experiment: Tetrazolium dye proliferation (WST-1) assay, PNT1A; type: cell-based; conditions: Homo sapiens, 120 h, 5 days incubation, concentration not given (primary screen 1 microM), mean±SD, read-out: proliferation inhibitory effect compared with 0.1 % DMSO vehicle control group
Experimental: as §1

[3] = system: LNCaP prostate cancer cell line; experiment: Tetrazolium dye proliferation (WST-1) assay, LNCaP; type: cell-based; conditions: 5 days incubation; for inhibition at 1 µM: Homo sapiens, 120 h, concentration not given (primary screen 1 microM), mean±SD, read-out: proliferation inhibitory effect compared with 0.1 % DMSO vehicle control group; for proliferation inhibitory effect compared with Gemcitabine: Gemcitabine set to 0, negative = less inhibition than Gemcitabine
Experimental: as §1

pancreatic cancer cells = experiment: Effect on other cancer cells (pancreatic); type: cell-based; conditions: other type of cancer cells such as pancreatic cancer cells
[4] = system: RC and S790 mouse mammary carcinomas; conditions: considered non active; cited from earlier work
acute leukaemia = conditions: up to 9 patients treated; cited from earlier work

Molecule: 5-Bromo-2'-deoxyuridine (Broxuridine) [Compound E]
- proliferation inhibitory effect compared with Gemcitabine [1]: -221.1±50.3%

Molecule: 5-Iodo-2'-deoxyuridine (Idoxuridine) [Compound F]
- proliferation inhibitory effect compared with Gemcitabine [1]: -174.8±33.9%

Molecule: Nc1ccn([C@@H]2O[C@H](CO)[C@@H](O)[C@@H]2O)c(=O)n1 [Ara-C]
- inhibition at 1 µM [2]: 66.5 ± 1.8%
- inhibition at 1 µM [1]: 78.3 ± 3.9%
- inhibition at 1 µM [3]: 50.1 ± 3.4%

Molecule: Nc1ncnc2[nH]ncc12 [Compound I, 4-Aminopyrazolo[3,4-d]pyrimidine]
- inhibition at 1 µM [2]: 18 ± 2.1%
- effect on pancreatic cancer cells (pancreatic cancer cells): no effect was detected
- proliferation inhibitory effect compared with Gemcitabine [1]: 93.8±2.4%
- inhibition at 1 µM [1]: 98.6 ± 0.5%
- tumor growth inhibition [4]: 10%
- antitumour activity in man (acute leukaemia): did not demonstrate any antitumour activity in man
- proliferation inhibitory effect compared with Gemcitabine [3]: 93.1±0.7%
- inhibition at 1 µM [3]: 97.9 ± 0.5%

Molecule: O=c1[nH]c(=O)n([C@H]2C[C@H](O)[C@@H](CO)O2)cc1F [Floxuridine]
- inhibition at 1 µM [2]: 88.3 ± 0.6%
- proliferation inhibitory effect compared with Gemcitabine [1]: -50.4±35.6%
- inhibition at 1 µM [1]: 66.2 ± 8%
- proliferation inhibitory effect compared with Gemcitabine [3]: -34.7±3.1%
- inhibition at 1 µM [3]: 58.3 ± 1%

Molecule: Nc1ccn([C@@H]2O[C@H](CO)[C@@H](O)C2(F)F)c(=O)n1 [Gemcitabine, 2',2'-difluorodeoxycytidine]
- inhibition at 1 µM [2]: 98.8 ± 0.3%
- proliferation inhibitory effect compared with Gemcitabine [1]: 0%
- inhibition at 1 µM [1]: 80 ± 3.7%
- proliferation inhibitory effect compared with Gemcitabine [3]: 0%
- inhibition at 1 µM [3]: 71.2 ± 0.8%

From EP2711007A1, “4-Aminopyrazolo[3,4-d]pyrimidine for use in treating or preventing primary and metastatic breast and prostate cancer” (Institut Univ. de Ciència i Tecnologia, S.A., priority 2012, dated 2014)
